Measured values as given in article PMC6956158, “In Vitro and In Vivo Assessment of Metabolic Drug Interaction Potential of Dutasteride with Ketoconazole” (Pharmaceutics, 2019).
One block for each compound: values may come before it.

What was measured:
[1] = In vivo pharmacokinetic study in rats, oral DUT without or with KET; parameters: species or system rat; conditions: male, Sprague-Dawley, rat, plasma, po, 5 mg/kg, n = 4
Description: The animal experiment protocols used in the present study were approved by the Pusan National University-Institutional Animal Care and Use Committee for scientific care and ethical procedures (Busan, Korea; approval date: 01/05/2018; approval number: PNU-2018-1848). Male Sprague–Dawley rats (8-week-old; approximately 250 g) were purchased from DBL Co., Ltd. (Incheon, Korea). The rats were acclimatized in a clean room of the Laboratory Animal Center of Pusan National University (Busan, Korea) for 1 week. Then, they were fasted for 12 h prior to the pharmacokinetic experiment and then anesthetized by intramuscular injection of Zoletil at a dose of 20 mg/kg. The femoral vein and artery of the rats were cannulated with a polyethylene tube (BD Medical; Franklin Lakes, NJ, USA). At approximately 4–6 h after the surgery for cannulation, an intravenous dose of DUT (2.5 mg/kg) simultaneously with or without intravenous KET ([…]) was administered to the rats. Drugs were dissolved in a vehicle consisting of dimethyl sulfoxide, ethanol, and polyethylene glycol 400 at a ratio of 10:5:85 (v/v/v). Blood (approximately 200 μL) was collected in heparin pre-treated microcentrifuge tubes via the femoral artery at 0, 1, 5, 15, 30, 60, 120, 180, 240, 360, 480, and 1200 min after the intravenous dose and at 0, 5, 15, 30, 60, 120, 150, 180, 240, 360, 480, and 1200 min after the oral dose. Following centrifugation of the blood samples at 3000× g at 4 °C for 10 min [19], 100 μL aliquots of plasma were stored at −80 °C.
(§1) The half maximal inhibitory concentration (IC50) of KET for the inhibition of the DUT metabolism was determined by the nonlinear regression analysis (GraphPad Prism ver. 5.01; GraphPad Software Inc., San Diego, CA, USA) based on the following Hill equation: y = Min + Max−Min/1 + (x/IC50)^-P where Max and Min are the initial and final y value, respectively, and the exponent P represents the Hill coefficient. Peak plasma concentration (Cmax) and time to reach Cmax (Tmax) were read directly from the observed data. Non-compartmental analysis was conducted to estimate pharmacokinetic parameters such as total area under plasma concentration versus time curve from time zero to time of last sampling (AUClast), total area under plasma concentration versus time curve from time zero to infinity (AUCinf), total plasma clearance (CL), volume of distribution at steady state (Vss), and terminal half-life (t1/2) using the NCA200 and 201 models of WinNonlin ver. 3.1 (Certara USA Inc., Princeton, NJ, USA).

[2] = In vivo pharmacokinetic study in rats, intravenous DUT without or with intravenous KET; parameters: species or system rat; conditions: male, Sprague-Dawley, rat, plasma, iv, 2.5 mg/kg, n = 4
Description: The animal experiment protocols used in the present study were approved by the Pusan National University-Institutional Animal Care and Use Committee for scientific care and ethical procedures (Busan, Korea; approval date: 01/05/2018; approval number: PNU-2018-1848). Male Sprague–Dawley rats (8-week-old; approximately 250 g) were purchased from DBL Co., Ltd. (Incheon, Korea). The rats were acclimatized in a clean room of the Laboratory Animal Center of Pusan National University (Busan, Korea) for 1 week. Then, they were fasted for 12 h prior to the pharmacokinetic experiment and then anesthetized by intramuscular injection of Zoletil at a dose of 20 mg/kg. The femoral vein and artery of the rats were cannulated with a polyethylene tube (BD Medical; Franklin Lakes, NJ, USA). At approximately 4–6 h after the surgery for cannulation, an intravenous dose of DUT (2.5 mg/kg) simultaneously with or without intravenous KET (20 mg/kg) or an oral dose of DUT (5 mg/kg) simultaneously with or without intravenous KET (20 mg/kg) was administered to the rats. Drugs were dissolved in a vehicle consisting of dimethyl sulfoxide, ethanol, and polyethylene glycol 400 at a ratio of 10:5:85 (v/v/v). Blood (approximately 200 μL) was collected in heparin pre-treated microcentrifuge tubes via the femoral artery at 0, 1, 5, 15, 30, 60, 120, 180, 240, 360, 480, and 1200 min after the intravenous dose and at 0, 5, 15, 30, 60, 120, 150, 180, 240, 360, 480, and 1200 min after the oral dose. Following centrifugation of the blood samples at 3000× g at 4 °C for 10 min [19], 100 μL aliquots of plasma were stored at −80 °C.
as §1

[3] = Stability in rat plasma (QC samples); assay type: in vitro ADME; conditions: n = 5; for Stability (percent drug remaining), Autosampler: 10 °C for 24 h in the autosampler; for Stability (percent drug remaining), Bench-Top: room temperature for 3 h; for Stability (percent drug remaining), Freeze-Thaw: three freezing and thawing cycles; for Stability (percent drug remaining), Long-Term: −20 °C for 30 days
Experimental: The bioanalytical method proposed herein for the simultaneous determination of DUT and H-DUT was fully validated on the basis of the US FDA guideline. The selectivity of the method was evaluated by comparing chromatograms of the analytes (DUT, H-DUT, and internal standard) in blank rat plasma, blank rat plasma spiked with the analytes, and rat plasma sample obtained from the in vivo rat pharmacokinetic study. Further, the existence of potential interferences at the acquisition windows of the analytes was checked. The linearity of the method was evaluated by adding increasing amounts of DUT and H-DUT to the blank plasma. To construct calibration curves (n = 5), the peak area ratios of DUT or H-DUT to the internal standard (y-axis) were plotted against the nominal concentration ratios of DUT or H-DUT (10–1000 ng/mL) to the internal standard (400 ng/mL) (x-axis), and then, linear regression analysis was performed. The sensitivity was assessed by estimating the LLOQ (signal-to-noise [S/N] ratio > 5). The peaks of the analytes at the LLOQ should be discrete, identifiable, and reproducible with acceptable precision (<20%) and accuracy (within 80–120%). The extraction recovery, matrix effect, dilution integrity, and stability (under bench-top, freeze–thaw, post-preparative, and long-term conditions) in addition to the intra-assay (five different samples) and inter-assay (five different runs) precision and accuracy for each analyte were determined at the LLOQ and three different QC levels as described in the US FDA guidelines and in previous studies.

[4] = parameters: method as in ref 13 (supplement); conditions: ref 13 (supplement); cited from earlier work
[5] = parameters: method as in ref 12 (supplement); conditions: ref 12 (supplement); cited from earlier work
DUT metabolism in RLM = experiment: Inhibition of DUT metabolism by KET in RLM; assay type: in vitro ADME, rat; conditions: RLM 1 mg/mL, DUT 5 μM, 90 min
Experimental: (§2) To investigate the metabolic interaction potential between DUT and KET, the disappearance of DUT (5 μM) in RLM and HLM was determined under the absence and presence of KET at various concentrations ranging from 1 to 5000 nM. A microsomal reaction mixture was prepared as follows (total volume: 0.2 mL): 1 mM NADPH, 10 mM MgCl2, substrate (DUT), and inhibitor (KET), RLM or HLM (1 mg/mL), and 50 mM phosphate buffer. […] The unbound fractions of DUT in rat plasma, RLM, human plasma, and HLM were measured using a rapid equilibrium dialysis (RED) device (Thermo Fisher Scientific, Inc., Waltham, MA, USA) as described in a previous study. […] The fraction unbound was calculated as the ratio of the drug concentrations in the “buffer” chamber to those in the “sample” chamber. The blood-to-plasma concentration ratio (RB) of DUT was determined as described previously. […] The concentrations of DUT in the plasma sample were determined by the validated HPLC analysis.
(§3) The half maximal inhibitory concentration (IC50) of KET for the inhibition of the DUT metabolism was determined by the nonlinear regression analysis (GraphPad Prism ver. 5.01; GraphPad Software Inc., San Diego, CA, USA) based on the following Hill equation: y = Min + Max−Min/1 + (x/IC50)^-P where Max and Min are the initial and final y value, respectively, and the exponent P represents the Hill coefficient. […]

DUT metabolism in HLM = experiment: Inhibition of DUT metabolism by KET in HLM; assay type: in vitro ADME, human
Experimental: as §2, §3

[6] = oral DUT 5 mg/kg with oral KET (20 mg/kg)
[7] = intravenous DUT 2.5 mg/kg with intravenous KET 20 mg/kg
[8] = intravenous DUT 2.5 mg/kg, DUT alone

AUC(0-t) [1, 6]: 630 ng·h/mL
Cmax [1, 6]: 62.8 ± 12.3 ng/mL
AUC(0-t) ([1]; oral DUT 5 mg/kg, DUT alone): 1590 ng·h/mL
Cmax ([1]; oral DUT 5 mg/kg, DUT alone): 103 ± 20 ng/mL
AUC(0-t) [2, 7]: 1070 ng·h/mL
Cmax [2, 7]: 116 ± 4 ng/mL
AUC(0-t) [2, 8]: 2130 ng·h/mL
Cmax [2, 8]: 141 ± 17 ng/mL
Stability (percent drug remaining), Autosampler ([3]; HQC 750 ng/mL): 104 ± 1%
Stability (percent drug remaining), Bench-Top ([3]; HQC 750 ng/mL): 101 ± 0%
Stability (percent drug remaining), Freeze-Thaw ([3]; HQC 750 ng/mL): 101 ± 1%
Stability (percent drug remaining), Long-Term ([3]; HQC 750 ng/mL): 106 ± 1%
Stability (percent drug remaining), Autosampler ([3]; LLOQ 10 ng/mL): 103 ± 4%
Stability (percent drug remaining), Bench-Top ([3]; LLOQ 10 ng/mL): 102 ± 4%
Stability (percent drug remaining), Freeze-Thaw ([3]; LLOQ 10 ng/mL): 101 ± 7%
Stability (percent drug remaining), Long-Term ([3]; LLOQ 10 ng/mL): 96.1 ± 4.7%
Stability (percent drug remaining), Autosampler ([3]; LQC 30 ng/mL): 97.1 ± 0.8%
Stability (percent drug remaining), Bench-Top ([3]; LQC 30 ng/mL): 104 ± 9%
Stability (percent drug remaining), Freeze-Thaw ([3]; LQC 30 ng/mL): 99.0 ± 2.3%
Stability (percent drug remaining), Long-Term ([3]; LQC 30 ng/mL): 95.1 ± 3.7%
Stability (percent drug remaining), Autosampler ([3]; MQC 150 ng/mL): 103 ± 4%
Stability (percent drug remaining), Bench-Top ([3]; MQC 150 ng/mL): 99.0 ± 1.4%
Stability (percent drug remaining), Freeze-Thaw ([3]; MQC 150 ng/mL): 103 ± 3%
Stability (percent drug remaining), Long-Term ([3]; MQC 150 ng/mL): 98.7 ± 1.5%
SMILES: C[C@]12C=CC(=O)N[C@@H]1[C@H](O)C[C@@H]1[C@@H]2CC[C@]2(C)[C@@H](C(=O)Nc3cc(C(F)(F)F)ccc3C(F)(F)F)CC[C@@H]12 [H-DUT, 6β-hydroxydutasteride]

IC50 (DUT metabolism in RLM): 77.3 ± 11.1 nM
IC50 (DUT metabolism in HLM; HLM 1 mg/mL, DUT 5 μM, 90 min): 54.9 ± 15.6 nM
Ki (DUT metabolism in HLM; HLM, fu,mic,KET × IC50 / (S/Km + 1), competitive inhibition assumed, read-out: Ki (unbound inhibition constant)): 48.5 nM
SMILES: CC(=O)N1CCN(c2ccc(OCC3COC(Cn4ccnc4)(c4ccc(Cl)cc4Cl)O3)cc2)CC1 (centres unmarked) [KET, ketoconazole]
Imax,u, maximum unbound plasma concentration [4]: 0.0913 µM
fu,mic,KET, unbound fraction in HLM [5]: 0.97
